Source: US10500194B2, “Covalent small molecule DCN1 inhibitors and therapeutic methods using the same” (THE REGENTS OF THE UNIVERSITY OF MICHIGAN, priority 2017, dated 2019)

Assays:
Nrf2 protein = test: Effect of covalent DCN1 inhibitors on Nrf2 protein level in mouse liver; format: in vivo; conditions: single dose 25 mg/kg IP, C57BL/6 male mice, western blotting
Experimental: Liver tissues harvested from C57BL/6 male mice treated with Example 9 (DI-1548) at 25 mg/kg via intraperitoneal (IP) injection were lysed with RIAP buffer. The expression level of Nrf2 protein was examined by western blotting. GAPDH was used a loading control.
The effect of several representative covalent DCN1 inhibitors (Examples 9, 21 and 22) on the level of Nrf2 protein in mouse liver was examined. Mice were administered with a single dose of Example 9 (DI-1548), Example 21 (DI-1859) or Example 22 (DI-1860) at 25 mg/kg, or phosphate-buffered saline (PBS), all via intraperitoneal (IP) injection. Mice were sacrificed at different time points and liver tissues were harvested for western blotting analysis for Nrf2 protein level. The data are shown in FIGS. 5, 6 and 7, respectively.

DCN1 [1] = molecular target: T1, DCN1 (Homo sapiens (Human), UniProt Q96GG9); test: Competitive FP binding assay; conditions: read-out: Binding affinity to DCN1 (IC50)
T1 sequence (Q96GG9 58-259): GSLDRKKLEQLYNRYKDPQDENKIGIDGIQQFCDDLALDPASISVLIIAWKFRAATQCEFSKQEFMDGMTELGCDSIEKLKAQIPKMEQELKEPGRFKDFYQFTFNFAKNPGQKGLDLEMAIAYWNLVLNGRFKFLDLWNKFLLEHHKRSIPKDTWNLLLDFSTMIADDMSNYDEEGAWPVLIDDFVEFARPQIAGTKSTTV
Experimental: The Fluorescence Polarization (FP) competitive binding assays were performed to accurately determine the binding affinities of our DCN1 inhibitors. A novel FAM labeled fluorescent probe compound (46) was designed and synthesized based on one of our potent small molecule DCN1 inhibitors. Equilibrium dissociation constants (Kd) values of 46 to both DCN1 and DCN2 proteins were determined from protein saturation experiments by monitoring the total FP values of mixtures composed with the fluorescent probe at a fixed concentration and proteins with increasing concentrations up to full saturation. Serial dilutions of proteins were mixed with 46 to a final volume of 200 μl in the assay buffer (100 mM phosphate buffer, pH=6.5, with 0.02% Tween-20 and 2% DMSO). Final probe concentration was 5 nM for both assays. Plates were incubated at room temperature for 30 minutes with gentle shaking to assure equilibrium. FP values in millipolarization units (mP) were measured using the Infinite M-1000 plate reader (Tecan U.S., Research Triangle Park, N.C.) in Microfluor 1 96-well, black, round-bottom plates (Thermo Scientific, Waltham, Mass.) at an excitation wavelength of 485 nm and an emission wavelength of 530 nm. Kd values of 46 were calculated by fitting the sigmoidal dose-dependent FP increases as a function of protein concentrations using Graphpad Prism 6.0 software (Graphpad Software, San Diego, Calif.).
(§1) Human DCN1 (residues 58-259) were cloned into a pDEST17 plasmid containing an N-terminal His6 tag. DCN2 (residues 62-259), DCN3 (residues 86-304), DCN4 (residues 102-292) and DCN5 (residues 47-237) were cloned into an N-terminal His6-TEV expression vector. Pure proteins were derived from the same expression and purification protocols. Plasmids were transformed into Rosetta2 cells, the cells were grown in Terrific Broth at 37° C. to an O.D.600>1.0 and induced with 0.4 mM Isopropyl β-D-1-thiogalactopyranoside overnight at 20° C. The pelleted cells were resuspended in lysis buffer containing 25 mM Tris-HCl, pH 7.5, 200 mM NaCl and protease inhibitors, sonicated and centrifuged at 34,000×g for 45 minutes to remove debris. Cleared lysate was incubated with Ni-NTA resin (Qiagen) prewashed with lysis buffer, for 1 hr at 4° C. The matrix was loaded into a column then washed with 25 mM Tris-HCl, pH 7.5, 200 mM NaCl and 10 mM imidazole. Protein was eluted with 25 mM Tris-HCl, pH 7.5, 200 mM NaCl and 300 mM imidazole, concentrated and applied to a Superdex 75 (GE Healthcare) column pre-equilibrated with 25 mM Tris pH 7.5, 200 mM NaCl and 1 mM DTT. For DCN2-5, the N-terminal His6 tag was removed prior to gel filtration. Tag removal was achieved through incubation with TEV protease during overnight dialysis against 25 mM Tris pH 7.5, 200 mM NaCl and 1 mM DTT and a second Ni-NTA column. DCN2-5 proteins were stored at −80° C. in 1 mg/mL fractions containing 5% glycerol. The uncleaved DCN1 protein was stored at −80° C. without glycerol.

[2] = system: APAP-induced liver injury; test: Protection of mice from acetaminophen-induced liver injury (blood ALT activity); format: in vivo
Experimental: To induce acute liver injury, mice were administered a large dose (400 mg/kg) of APAP via intraperitoneal (I.P.) injection and were sacrificed 48 hr later. To examine the protective effect of DI-1859 (pretreatment), animals were I.P. injected with DI-1859 for three consecutive days (one day before APAP injection, three hours before APAP injection and a third dose on the next day after APAP injection). To examine the restorative effect of DI-1859 (post-treatment), mice were treated with DI-1859 three hours after APAP administration followed by two additional doses on the following two days. Two control groups of mice were treated with phosphate-buffered saline (PBS) or DI-1859, respectively. Blood sample collection was performed on each day.
The activity of alanine aminotransferase (ALT) in blood is a commonly used measurement clinically as a part of a diagnostic evaluation of liver injury, to determine liver health. Therefore, the blood ALT activity was measured using an ALT reagent set (Pointe Scientific Inc., Canton, Mich.). […] Furthermore, post-treatment of APAP with DI-1859 at 50 mg/kg reduces the APAP-induced elevated ALT level by approximately 50%.

[3] = system: neddylation of cullin 3 and NRF2 protein in HepG2 cells; test: Western blotting of cullin neddylation and NRF2 in HepG2 cells; format: cell-based; conditions: 20 h, compared with non-covalent inhibitor B
Experimental: HepG2 cells were treated as indicated concentrations for 20 h, NRF2, Cullin 1, and Cullin 3 proteins were examined by western blotting. GAPDH was used as a loading control.
Treated cells were lysed by RIPA buffer supplemented with protease inhibitor. The expression level of indicated proteins was examined by western blotting analysis. GAPDH was used as a loading control. Antibodies were purchased: Cullin 1 (sc-11384), Cullin2 (sc-10781), CullinS (sc-13014) and Cullin7 (sc-134565) from Santa Cruz Biotech. (Santa Cruz, Calif.); Cullin 4A (PA5-14542), Cullin 4B (PA5-35239), Cullin9 (PA5-20277), DCN2 (DCUNID2, PA5-31607) and DCN3 (DCUNID3, PA5-44000) from ThermoFisher Scientific (Wayne, Mich.); Cullin 3 (2759), NRF2 (12721), HO-1 (70081), NQO1 (3187), Cyclin E (4129), Bim (2819), Keap1 (8047) and UBC12 (4913) from Cell Signaling Technology (Boston, Mass.); DCN1 (GWB-E3D700) from GenWay Biotech (San Diego, Calif.). Results are representative of three independent experiments.

DCN1 [4] = molecular target: T1, DCN1; test: Mass spectroscopy of DCN1 protein incubations; format: binding; conditions: for ablation of the parent peak in the mass spectrum / major new peak (protein-inhibitor adduct) / mass of new peak (DCN1 plus inhibitor, loss of morpholinyl group): DCN1 380 μM, 1.2 fold excess of inhibitor, 4° C. overnight, Q-TOF; for difference from DCN1 Apo-protein mass: FIG. 2; for formation of a covalent bond with DCN1 protein: FIG. 2, mass-spectroscopic analyses
Experimental: as §1
Recombinant DCN1 protein (380 μM) in 25 mM Tris 7.5, 200 mM NaCl, 1 mM DTT buffer was incubated with a 1.2 fold excess of selected DCN1 inhibitors at 4° C. for overnight. The reaction mixture was diluted with tenfold with water, and the protein was analyzed by Q-TOF mass spectroscopy. DCN1 untreated, or treated with previously described non-covalent inhibitors produced an isotope deconvoluted peak at 26.085.75 amus. Incubation under the described conditions with Examples 4, 7 and 9 led to 95-99% ablation of the parent peak in the mass spectrum, with a major (>90%) new peak appearing at 26588.96 amu (Dalton) for Example 4, 26604.34 amu for Example 7, and 26596.18 amu for Example 9. In each case this corresponds to addition of the inhibitor to the protein, coupled with the loss of the morpholinyl group, from the initial Michael adduct between the protein and the small molecule.

IC50 (DCN1 [1])	ablation of the parent peak in the mass spectrum (DCN1 [4])	major new peak (protein-inhibitor adduct) (DCN1 [4])	mass of new peak (DCN1 plus inhibitor, loss of morpholinyl group) (DCN1 [4])	difference from DCN1 Apo-protein mass (DCN1 [4])	formation of a covalent bond with DCN1 protein (DCN1 [4])	SMILES	level of Nrf2 protein in mouse liver tissue (Nrf2 protein)	also measured
41.6 nM	95-99%	> 90%	26588.96 amu	503.21 Da	formation of a covalent bond	C=C(CN1CCOCC1)C(=O)NC[C@@H](NC(=O)[C@H](Cc1nc2ccc(Cl)cc2s1)NC(=O)CC)C1CCCCC1 [Example 4, N—((S)-2-((S)-3-(6-chlorobenzo[d]thiazol-2-yl)-2-propionamidopropanamido)-2-cyclohexylethyl)-2-(morpholinomethyl)acrylamide]	–	–
37.4 nM	95-99%	> 90%	26604.34 amu	518.59 Da	formation of a covalent bond	C=C(CN1CCOCC1)C(=O)NC[C@H](Cc1ccccc1)NC(=O)[C@H](Cc1nc2ccc(C(C)C)cc2s1)NC(=O)CC [Example 7, N—((S)-2-((S)-3-(6-prop-2-ylbenzo[d]thiazol-2-yl)-2-propionamidopropanamido)-3-phenylpropyl)-2-(morpholinomethyl)acrylamide]	–	–
< 150 nM	–	–	–	–	–	C=C(CN1CCC(F)(F)CC1)C(=O)NC[C@@H](NC(=O)[C@H](Cc1nc2ccc(C(C)C)cc2s1)NC(=O)CC)C1CCCCC1 [Example 30, N—((S)-2-cyclohexyl-2-((S)-3-(6-isopropylbenzo[d]thiazol-2-yl)-2-propionamidopropanamido)ethyl)-2-((4,4-difluoropiperidin-1-yl)methyl)acrylamide]	–	–

More lines, now with the values behind:

SMILES	IC50 (DCN1 [1])	ablation of the parent peak in the mass spectrum (DCN1 [4])	major new peak (protein-inhibitor adduct) (DCN1 [4])	mass of new peak (DCN1 plus inhibitor, loss of morpholinyl group) (DCN1 [4])	difference from DCN1 Apo-protein mass (DCN1 [4])	formation of a covalent bond with DCN1 protein (DCN1 [4])	level of Nrf2 protein in mouse liver tissue (Nrf2 protein)	also measured
C=C(CN(CC)CC)C(=O)NC[C@@H](NC(=O)[C@H](Cc1nc2ccc(C(C)C)cc2s1)NC(=O)CC)C1CCCCC1 [Example 22, N—((S)-2-cyclohexyl-2-((S)-3-(6-isopropylbenzo[d]thiazol-2-yl)-2-propionamidopropanamido)ethyl)-2-((diethylamino)methyl)acrylamide]	< 150 nM	–	–	–	–	–	effectively increases	–
C=C(CN(C)C)C(=O)NC[C@@H](NC(=O)[C@H](Cc1nc2ccc(C(C)C)cc2s1)NC(=O)CC)C1CCCCC1 [Example 21, N—((S)-2-cyclohexyl-2-((S)-3-(6-isopropylbenzo[d]thiazol-2-yl)-2-propionamidopropanamido)ethyl)-2-((dimethylamino)methyl)acrylamide]	< 150 nM	–	–	–	–	–	effectively increases	reduction of APAP-induced elevated ALT level, post-treatment ([2]; APAP 400 mg/kg I.P., post-treatment at 50 mg/kg): approximately 50%; elevation of ALT activity by APAP, pretreatment ([2]; APAP 400 mg/kg I.P., pretreatment at 50 mg/kg): completely prevents; elevated ALT activity induced by APAP, pretreatment ([2]; APAP 400 mg/kg I.P., pretreatment, dose-dependent): effectively reduces; APAP-induced alanine aminotransferase (ALT) increase ([2]; pre- or post-treatment, APAP, FIG. 8): effectively blocks or reduces
C=C(CN1CCOCC1)C(=O)NC[C@@H](NC(=O)[C@H](Cc1nc2ccc(C(C)C)cc2s1)NC(=O)CC)C1CCCCC1 [Example 9, N—((S)-2-((S)-3-(6-prop-2-ypbenzo[d]thiazol-2-yl)-2-propionamidopropanamido)-2-cyclohexylethyl)-2-(morpholinomethyl)acrylamide]	66.5 nM	95-99%	> 90%	26596.18 amu	510.81 Da	formation of a covalent bond	effectively increases	increasing the level of NRF2 protein [3]: much stronger biological activity; inhibition of neddylation of cullin 3 [3]: much stronger biological activity
C=C(Cn1ccnc1)C(=O)NC[C@@H](NC(=O)[C@H](Cc1nc2ccc(C(C)C)cc2s1)NC(=O)CC)C1CCCCC1 [Example 24, 2-((1H-imidazol-1-yl)methyl)-N—((S)-2-cyclohexyl-2-((S)-3-(6-isopropylbenzo[d]thiazol-2-yl)-2-propionamidopropanamido)ethyl)acrylamide]	< 150 nM	–	–	–	–	–	–	–
